A short description of data set [1]: extraction of pyridostigmine from basic solutions by organic solvents. It is filed as physicochemical.
A short description of data set [2]: plasma levels of pyridostigmine in rats. It is filed as in vivo, rat. Here is the method: (§1) For animal studies, rats weighing 175-225 g were placed in metabolic cages and deprived of solid food for 14 hours. For urine studies they were hydrated by the administration of 2.5 ml per 100 g of warm water by stomach tube. This was repeated after 1 hour. An 80 μg aliquot of pyridostigmine in 0.2 ml water was injected intramuscularly into a hind limb. Urine free from feces was collected over a period of 24 hours. In blood studies a similar dose was administered intramuscularly. At selected intervals over a period of 1 hour blood specimens were collected from excised hearts.
(§2) The assay was applied to the quantitation of pyridostigmine in urine and plasma of rats following the oral administration of 450 μg of pyridostigmine bromide per kg of body weight. One ml of urine and 1.5 ml of plasma samples were used for an assay. The urinary excretion of pyridostigmine in three rats over a 24-hour period was 60.0 and 65.4% of […]

The nature of data set [3]: urinary excretion of pyridostigmine in rats. It is filed as in vivo, rat. Here is the method: as §1, §2

The text below walks through data of patent publication US4590166A, “Method for separating and measuring the amount of polar compounds and their metabolites in aqueous solutions” (priority 1983, dated 1986).

As to `CN(C)C(=O)Oc1ccc[n+](C)c1` [pyridostigmine], the “extraction from basic solutions by organic solvents of various polarities” value in data set [1] is listed as “could not extract”. Besides, the “initial plasma concentrations relative to that of urine” value in data set [2] (average of three experiments for a single time point) is reported as “about 1/25”. Further, the concentration at 7 min in data set [2] (plasma, im, 0.08 mg, approximately 80 μg per rat, after 7 min) stood at 250 ng/mL. In data set [2] (plasma, im, 0.08 mg, approximately 80 μg per rat, within 1 hour), the concentration at 1 h was under 50 ng/mL. For the same compound, in data set [3] (over a 24-hour period, 450 μg/kg pyridostigmine bromide, 0.45 mg/kg, 1440 min), the “urinary excretion of pyridostigmine (% of the total dose injected)” value is recorded as 65.4%. Besides, the dose excreted at 48 h in data set [3] (rat, urine, im, 0.08 mg, between 24 and 48 hours, read-out: urinary excretion (% of the total dose injected)) was under 5%. Also, in data set [3] (rat, urine, im, 0.45 mg/kg, over a 24-hour period, 450 μg/kg pyridostigmine bromide, read-out: urinary excretion of pyridostigmine (% of the total dose injected)), the dose excreted at 24 h came out at 60%.
